Laboratory results taken from PubChem BioAssay AID1259407 (Chemical Carcinogenesis Research Information System (CCRIS), 2018).
Activity calls are given as the source filed them. How the calls were made is not given here.

Test system: CCRIS mutagenicity, Ames/micronucleus/aberration tests
Assay: CCRIS mutagenicity studies
[1] = Test System: AMES SALMONELLA TYPHIMURIUM, Strain/Indicator: TA97, Metabolic Activation: NONE, Method: STANDARD PLATE
[2] = Test System: AMES SALMONELLA TYPHIMURIUM, Strain/Indicator: TA98, Metabolic Activation: NONE, Method: STANDARD PLATE
[3] = Test System: AMES SALMONELLA TYPHIMURIUM, Strain/Indicator: TA100, Metabolic Activation: NONE, Method: STANDARD PLATE
[4] = Test System: AMES SALMONELLA TYPHIMURIUM, Strain/Indicator: TA98, Metabolic Activation: NONE, Method: PREINCUBATION

Measured: mutagenic call

N/C(=N\O)c1cc(O)c(O)c(O)c1
active: [1] active; positive | Test System: AMES SALMONELLA TYPHIMURIUM, Strain/Indicator: TA97, Metabolic Activation: RAT, LIVER, S-9, DELOR 103, Method: STANDARD PLATE active; positive
inactive: [2] inactive; negative | Test System: AMES SALMONELLA TYPHIMURIUM, Strain/Indicator: TA98, Metabolic Activation: RAT, LIVER, S-9, DELOR 103, Method: STANDARD PLATE inactive; negative | [3] inactive; negative | Test System: AMES SALMONELLA TYPHIMURIUM, Strain/Indicator: TA100, Metabolic Activation: RAT, LIVER, S-9, DELOR 103, Method: STANDARD PLATE inactive; negative | Test System: AMES SALMONELLA TYPHIMURIUM, Strain/Indicator: TA102, Metabolic Activation: NONE, Method: STANDARD PLATE inactive; negative | Test System: AMES SALMONELLA TYPHIMURIUM, Strain/Indicator: TA102, Metabolic Activation: RAT, LIVER, S-9, DELOR 103, Method: STANDARD PLATE inactive; negative

O=C(O)C[C@H](NC(=O)COc1cc(Cl)c(Cl)cc1Cl)C(=O)O
inactive: [1] inactive; negative | Test System: AMES SALMONELLA TYPHIMURIUM, Strain/Indicator: TA97, Metabolic Activation: RAT, LIVER, S-9, AROCLOR 1254, Method: STANDARD PLATE inactive; negative | [2] inactive; negative | Test System: AMES SALMONELLA TYPHIMURIUM, Strain/Indicator: TA98, Metabolic Activation: RAT, LIVER, S-9, AROCLOR 1254, Method: STANDARD PLATE inactive; negative | [3] inactive; negative | Test System: AMES SALMONELLA TYPHIMURIUM, Strain/Indicator: TA100, Metabolic Activation: RAT, LIVER, S-9, AROCLOR 1254, Method: STANDARD PLATE inactive; negative | Test System: AMES SALMONELLA TYPHIMURIUM, Strain/Indicator: TA1535, Metabolic Activation: NONE, Method: STANDARD PLATE inactive; negative | Test System: AMES SALMONELLA TYPHIMURIUM, Strain/Indicator: TA1535, Metabolic Activation: RAT, LIVER, S-9, AROCLOR 1254, Method: STANDARD PLATE inactive; negative | Test System: AMES SALMONELLA TYPHIMURIUM, Strain/Indicator: TA1538, Metabolic Activation: NONE, Method: STANDARD PLATE inactive; negative | Test System: AMES SALMONELLA TYPHIMURIUM, Strain/Indicator: TA1538, Metabolic Activation: RAT, LIVER, S-9, AROCLOR 1254, Method: STANDARD PLATE inactive; negative

CNc1ccc(N=Nc2ccc(NC)cc2)cc1
inactive: Test System: AMES SALMONELLA TYPHIMURIUM, Strain/Indicator: TA98, Metabolic Activation: RAT, LIVER, S-9, POLYCHLORINATED BIPHENYLS, Method: PREINCUBATION inactive; negative | Test System: AMES SALMONELLA TYPHIMURIUM, Strain/Indicator: TA100, Metabolic Activation: RAT, LIVER, S-9, POLYCHLORINATED BIPHENYLS, Method: PREINCUBATION inactive; negative

Cc1ccc(C)o1
inactive: Test System: AMES SALMONELLA TYPHIMURIUM, Strain/Indicator: TA97, Metabolic Activation: HAMSTER, LIVER, S-9, AROCLOR 1254 (10%), Method: PREINCUBATION inactive; negative | Test System: AMES SALMONELLA TYPHIMURIUM, Strain/Indicator: TA97, Metabolic Activation: HAMSTER, LIVER, S-9, AROCLOR 1254 (30%), Method: PREINCUBATION inactive; negative | Test System: AMES SALMONELLA TYPHIMURIUM, Strain/Indicator: TA97, Metabolic Activation: NONE, Method: PREINCUBATION inactive; negative | Test System: AMES SALMONELLA TYPHIMURIUM, Strain/Indicator: TA97, Metabolic Activation: RAT, LIVER, S-9, AROCLOR 1254 (10%), Method: PREINCUBATION inactive; negative | Test System: AMES SALMONELLA TYPHIMURIUM, Strain/Indicator: TA97, Metabolic Activation: RAT, LIVER, S-9, AROCLOR 1254 (30%), Method: PREINCUBATION inactive; negative | Test System: AMES SALMONELLA TYPHIMURIUM, Strain/Indicator: TA98, Metabolic Activation: HAMSTER, LIVER, S-9, AROCLOR 1254 (10%), Method: PREINCUBATION inactive; negative | Test System: AMES SALMONELLA TYPHIMURIUM, Strain/Indicator: TA98, Metabolic Activation: HAMSTER, LIVER, S-9, AROCLOR 1254 (30%), Method: PREINCUBATION inactive; negative | [4] inactive; negative | [2] inactive; negative | Test System: AMES SALMONELLA TYPHIMURIUM, Strain/Indicator: TA98, Metabolic Activation: RAT, LIVER, S-9, AROCLOR 1254 (10%), Method: PREINCUBATION inactive; negative | Test System: AMES SALMONELLA TYPHIMURIUM, Strain/Indicator: TA98, Metabolic Activation: RAT, LIVER, S-9, AROCLOR 1254 (30%), Method: PREINCUBATION inactive; negative | Test System: AMES SALMONELLA TYPHIMURIUM, Strain/Indicator: TA98, Metabolic Activation: S-9, Method: STANDARD PLATE inactive; negative | Test System: AMES SALMONELLA TYPHIMURIUM, Strain/Indicator: TA100, Metabolic Activation: HAMSTER, LIVER, S-9, AROCLOR 1254 (10%), Method: PREINCUBATION inactive; negative | Test System: AMES SALMONELLA TYPHIMURIUM, Strain/Indicator: TA100, Metabolic Activation: HAMSTER, LIVER, S-9, AROCLOR 1254 (30%), Method: PREINCUBATION inactive; negative | Test System: AMES SALMONELLA TYPHIMURIUM, Strain/Indicator: TA100, Metabolic Activation: NONE, Method: PREINCUBATION inactive; negative | [3] inactive; negative | Test System: AMES SALMONELLA TYPHIMURIUM, Strain/Indicator: TA100, Metabolic Activation: RAT, LIVER, S-9, AROCLOR 1254 (10%), Method: PREINCUBATION inactive; negative | Test System: AMES SALMONELLA TYPHIMURIUM, Strain/Indicator: TA100, Metabolic Activation: RAT, LIVER, S-9, AROCLOR 1254 (30%), Method: PREINCUBATION inactive; negative | Test System: AMES SALMONELLA TYPHIMURIUM, Strain/Indicator: TA100, Metabolic Activation: S-9, Method: STANDARD PLATE inactive; negative | Test System: AMES SALMONELLA TYPHIMURIUM, Strain/Indicator: TA1535, Metabolic Activation: HAMSTER, LIVER, S-9, AROCLOR 1254 (10%), Method: PREINCUBATION inactive; negative | Test System: AMES SALMONELLA TYPHIMURIUM, Strain/Indicator: TA1535, Metabolic Activation: HAMSTER, LIVER, S-9, AROCLOR 1254 (30%), Method: PREINCUBATION inactive; negative | Test System: AMES SALMONELLA TYPHIMURIUM, Strain/Indicator: TA1535, Metabolic Activation: NONE, Method: PREINCUBATION inactive; negative | Test System: AMES SALMONELLA TYPHIMURIUM, Strain/Indicator: TA1535, Metabolic Activation: RAT, LIVER, S-9, AROCLOR 1254 (10%), Method: PREINCUBATION inactive; negative | Test System: AMES SALMONELLA TYPHIMURIUM, Strain/Indicator: TA1535, Metabolic Activation: RAT, LIVER, S-9, AROCLOR 1254 (30%), Method: PREINCUBATION inactive; negative

CC(=O)OCc1ccc2ccc3cccc4ccc1c2c34
active: [4] active; positive

Nc1ncnc2c1ncn2[C@H]1C[C@H](O)[C@@H](CO)O1
inactive: [2] inactive; negative | Test System: AMES SALMONELLA TYPHIMURIUM, Strain/Indicator: TA98, Metabolic Activation: RAT, LIVER, S-9, POLYCHLORINATED BIPHENYLS, Method: STANDARD PLATE inactive; negative | [3] inactive; negative | Test System: AMES SALMONELLA TYPHIMURIUM, Strain/Indicator: TA100, Metabolic Activation: RAT, LIVER, S-9, POLYCHLORINATED BIPHENYLS, Method: STANDARD PLATE inactive; negative
active: Test System: MOUSE LYMPHOMA, Strain/Indicator: L5178Y (TK+/TK-), Metabolic Activation: NONE, Method: SUSPENSION/PLATE active; positive

CC(=O)Oc1c2ccccc2c2ccc3cccc4ccc1c2c43
active: Test System: UDS RODENT PRIMARY CELLS, Strain/Indicator: THY INCORP (NON-S-PHASE), Metabolic Activation: NONE, Method: AUTORADIOGRAPHY active; positive

CCCOS(=O)(=O)c1ccc(C)cc1
active: [3] active; positive | Test System: AMES SALMONELLA TYPHIMURIUM, Strain/Indicator: TA100, Metabolic Activation: RAT, LIVER, S-9, Method: STANDARD PLATE active; positive
inactive: End Point: IN VITRO MICRONUCLEUS, Test System: MOUSE LYMPHOMA L5178Y CELLS, Metabolic Activation: NONE inactive; negative; positive results only at highly excessively cytotoxic doses | End Point: IN VITRO MICRONUCLEUS, Test System: MOUSE LYMPHOMA L5178Y CELLS, Metabolic Activation: RAT, LIVER, S-9 inactive; negative | End Point: In vitro micronucleus, Test System: Chinese Hamster Ovary (CHO-WBL) cells, Metabolic Activation: None inactive; negative
